The target in this assay is T1, Protease-activated receptor 1 (PAR1) (Homo sapiens, UniProt P25116).
T1 construct: gene F2R; PAR1 purified from 293-PAR1 cell lines
T1 sequence (P25116 42-425): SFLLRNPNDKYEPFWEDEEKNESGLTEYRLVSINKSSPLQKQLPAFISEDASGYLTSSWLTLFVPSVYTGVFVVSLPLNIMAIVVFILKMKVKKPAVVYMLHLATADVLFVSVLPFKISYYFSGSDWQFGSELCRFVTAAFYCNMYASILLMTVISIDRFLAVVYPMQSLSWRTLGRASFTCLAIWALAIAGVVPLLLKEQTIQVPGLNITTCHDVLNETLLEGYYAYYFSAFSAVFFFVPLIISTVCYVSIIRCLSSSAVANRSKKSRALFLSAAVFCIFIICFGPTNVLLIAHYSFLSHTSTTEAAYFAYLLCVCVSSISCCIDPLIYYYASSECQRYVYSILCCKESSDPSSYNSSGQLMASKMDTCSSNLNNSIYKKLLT
The assay can be described thus: SPR (Biacore […], PAR1 immobilized on CM5 chip). In kind it is binding. A general note: SPR reads the build-up and loss of mass on a sensor chip optically.

Consider `C[C@H]1c2cccc(O)c2C(=O)C2=C(O)[C@]3(O)C(=O)C(C(N)=O)=C(O)[C@@H](N(C)C)[C@@H]3[C@@H](O)[C@@H]21` [Doxycycline], for which the Kd came out at 23 µM.

The Kd is the free concentration of one partner at which half of the binding sites on the other are occupied at equilibrium, for simple one-to-one binding. Low readings indicate tighter binding, high ones weaker binding.
